One series deals with thrombin (Bos taurus, UniProt P00735). Kind of series: Inhibition of thrombin (dissociation constant Ki). In kind it is biochemical.
The target in the next series is factor Xa (Bos taurus, UniProt P00743). In words: Inhibition of factor Xa (dissociation constant Ki). Type of series: biochemical.
In a further series the target is T1, plasmin (Homo sapiens, UniProt P00747).
T1 construct: trypsin and the related enzymes thrombin, plasmin, factor Xa, tPA
Kind of series: Inhibition of plasmin (Ki). In kind it is biochemical. As to conditions: Table 26.

A further series deals with T2, factor XIIa (Homo sapiens, UniProt P00748).
T2 construct: glandular kallikrein, factor XIIa and plasma kallikrein
T2 sequence (P00748 373-615 limits assumed): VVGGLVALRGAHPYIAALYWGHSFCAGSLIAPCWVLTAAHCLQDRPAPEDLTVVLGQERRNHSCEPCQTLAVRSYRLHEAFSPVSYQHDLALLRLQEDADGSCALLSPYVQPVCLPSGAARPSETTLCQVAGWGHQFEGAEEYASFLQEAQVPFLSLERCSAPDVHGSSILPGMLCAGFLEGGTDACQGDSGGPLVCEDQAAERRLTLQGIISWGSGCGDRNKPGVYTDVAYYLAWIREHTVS
Kind of series: Inhibition of factor XIIa (Ki). Type of series: biochemical. As to conditions: Table 26.

The target in a further series is tPA (Homo sapiens, UniProt P00750). In words: Inhibition of tPA (Ki). Type of series: biochemical. As to conditions: Table 26.
Sequence of tPA (P00750 36-562): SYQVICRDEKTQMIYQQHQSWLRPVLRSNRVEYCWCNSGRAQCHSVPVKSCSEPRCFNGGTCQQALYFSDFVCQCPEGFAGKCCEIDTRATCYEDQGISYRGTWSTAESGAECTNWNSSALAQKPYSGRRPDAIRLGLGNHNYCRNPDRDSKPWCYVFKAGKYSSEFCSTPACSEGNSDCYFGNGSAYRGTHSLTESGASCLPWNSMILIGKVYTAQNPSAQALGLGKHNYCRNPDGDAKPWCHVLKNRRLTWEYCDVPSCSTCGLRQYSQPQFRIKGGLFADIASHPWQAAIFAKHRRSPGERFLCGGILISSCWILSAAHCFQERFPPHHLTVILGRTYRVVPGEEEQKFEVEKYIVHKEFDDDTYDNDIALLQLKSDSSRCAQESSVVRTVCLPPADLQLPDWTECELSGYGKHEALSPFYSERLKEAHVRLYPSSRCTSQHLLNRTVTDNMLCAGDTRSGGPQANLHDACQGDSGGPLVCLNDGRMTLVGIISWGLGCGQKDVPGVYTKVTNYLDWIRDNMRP
In another series the target is glandular kallikrein (Sus scrofa, UniProt P00752). Kind of series: Inhibition of glandular kallikrein (Ki). In kind it is biochemical. As to conditions: Table 26; read-out: Ki, Gland. Kallikrein.
Sequence of glandular kallikrein (P00752 8-246): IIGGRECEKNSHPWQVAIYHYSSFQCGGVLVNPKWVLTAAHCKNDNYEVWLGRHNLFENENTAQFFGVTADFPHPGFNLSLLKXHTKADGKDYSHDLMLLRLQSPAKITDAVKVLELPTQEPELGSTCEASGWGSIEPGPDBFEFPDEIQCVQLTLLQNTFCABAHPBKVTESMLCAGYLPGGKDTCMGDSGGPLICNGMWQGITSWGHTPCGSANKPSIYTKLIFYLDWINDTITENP
In the next series the target is T3, plasma kallikrein (Homo sapiens, UniProt P03952).
T3 construct: glandular kallikrein, factor XIIa and plasma kallikrein
T3 sequence (P03952 391-638 limits assumed, species assumed): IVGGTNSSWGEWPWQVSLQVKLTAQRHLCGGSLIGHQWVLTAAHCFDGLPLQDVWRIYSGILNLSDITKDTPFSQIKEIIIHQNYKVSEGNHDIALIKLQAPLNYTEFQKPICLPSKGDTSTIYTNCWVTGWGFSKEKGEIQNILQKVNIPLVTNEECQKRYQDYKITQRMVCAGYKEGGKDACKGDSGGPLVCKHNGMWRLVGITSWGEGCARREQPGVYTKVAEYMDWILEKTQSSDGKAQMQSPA
T3 sequence (P03952 20-390 partner limits assumed, species assumed): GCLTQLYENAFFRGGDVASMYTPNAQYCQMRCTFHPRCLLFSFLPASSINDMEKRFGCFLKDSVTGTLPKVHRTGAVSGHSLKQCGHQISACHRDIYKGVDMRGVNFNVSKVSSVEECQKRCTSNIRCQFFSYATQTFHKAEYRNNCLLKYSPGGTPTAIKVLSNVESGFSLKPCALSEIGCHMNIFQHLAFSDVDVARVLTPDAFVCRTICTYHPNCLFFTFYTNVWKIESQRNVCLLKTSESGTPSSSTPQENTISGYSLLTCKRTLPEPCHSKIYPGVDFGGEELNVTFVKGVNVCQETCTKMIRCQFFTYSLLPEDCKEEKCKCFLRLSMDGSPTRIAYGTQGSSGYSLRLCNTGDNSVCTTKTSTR
In words: Inhibition of plasma kallikrein (Ki). Type of series: biochemical. As to conditions: Table 26.

Another series is described as follows: in vivo. As to conditions: mouse.
The nature of series [1]: Plasma concentration in rats after oral administration (HPLC). As to conditions: rat.
Experimental: (§1) For the pharmacokinetic characterization, the plasma concentration of selected derivatives was determined in rats after intravenous (i.v.), subcutaneous (s.c.) and peroral (p.o.) application according to the following three-step procedure:
(§2) 1. A physiological NaCl solution of the substance to be tested was submitted to high pressure liquid chromatography (HPLC) in order to determine its characteristic substance-specific retention time with the chosen test conditions.
(§3) 2. The substance to be tested was diluted in vitro in rat plasma. This solution was also submitted to HPLC to see whether the characteristic peak of the substance once again appeared at the substance-specific retention time.
(§4) 3. […] Blood samples were taken at time intervals of 15 minutes, from which plasma samples were prepared by centrifugation; those samples were also submitted to HPLC to see whether the characteristic peak of the substance appeared again at the substance-specific retention time.
The nature of series [2]: Plasma concentration in rats after intravenous administration (HPLC). As to conditions: for pharmacokinetic properties: in words, compared with NAPAP.
Experimental: as §1, §2, §3, §4
Series [3] in a line: Plasma concentration in rats after subcutaneous administration (HPLC). As to conditions: rat.
Experimental: as §1, §2, §3, §4
Where [4] appears, read: Tables 19-25, read-out: Ki, Factor Xa.

SMILES strings stand for the structures. Where a name gives a salt, the structure may show the parent alone. Read-outs that look alike come from different tables or passages of the source.

Sequence of factor Xa (P00743 234-492 limits assumed): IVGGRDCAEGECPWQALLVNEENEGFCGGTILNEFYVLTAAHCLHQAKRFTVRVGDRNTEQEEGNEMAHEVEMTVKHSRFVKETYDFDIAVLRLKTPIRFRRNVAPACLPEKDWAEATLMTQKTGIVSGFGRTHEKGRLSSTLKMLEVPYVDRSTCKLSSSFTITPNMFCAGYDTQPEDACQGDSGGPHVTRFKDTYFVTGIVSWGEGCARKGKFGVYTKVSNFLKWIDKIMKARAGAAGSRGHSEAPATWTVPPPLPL
Sequence of factor Xa (P00743 41-180 partner limits assumed): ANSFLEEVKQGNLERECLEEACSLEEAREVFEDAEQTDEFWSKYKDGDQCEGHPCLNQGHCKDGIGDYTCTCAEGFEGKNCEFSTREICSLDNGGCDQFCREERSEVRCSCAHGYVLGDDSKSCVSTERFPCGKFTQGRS
T1 sequence (P00747 581-810 limits assumed): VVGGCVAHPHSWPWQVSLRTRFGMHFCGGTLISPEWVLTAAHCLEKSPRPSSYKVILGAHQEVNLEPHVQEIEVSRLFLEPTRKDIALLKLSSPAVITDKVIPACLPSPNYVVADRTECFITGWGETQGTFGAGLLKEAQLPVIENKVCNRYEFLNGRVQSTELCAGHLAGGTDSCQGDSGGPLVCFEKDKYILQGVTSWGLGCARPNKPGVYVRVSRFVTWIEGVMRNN
T1 sequence (P00747 97-580 partner limits assumed): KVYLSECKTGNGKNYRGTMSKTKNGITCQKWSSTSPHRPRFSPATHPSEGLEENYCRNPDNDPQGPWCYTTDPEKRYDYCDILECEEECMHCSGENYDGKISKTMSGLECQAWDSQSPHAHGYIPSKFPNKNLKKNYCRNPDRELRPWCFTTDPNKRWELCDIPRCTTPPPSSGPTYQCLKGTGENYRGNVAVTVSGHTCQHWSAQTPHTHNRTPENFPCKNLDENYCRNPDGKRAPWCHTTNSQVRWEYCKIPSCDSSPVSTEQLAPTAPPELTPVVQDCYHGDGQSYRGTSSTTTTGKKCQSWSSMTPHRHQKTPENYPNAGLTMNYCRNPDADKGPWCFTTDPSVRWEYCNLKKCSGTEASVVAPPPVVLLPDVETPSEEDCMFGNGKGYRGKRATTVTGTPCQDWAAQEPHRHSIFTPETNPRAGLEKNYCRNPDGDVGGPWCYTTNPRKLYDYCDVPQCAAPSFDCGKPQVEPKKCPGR

For `COC(=O)C(Cc1cccc(C(=N)N)c1)NS(=O)(=O)c1ccc2ccccc2c1` (racemic) [Compound 7], the Ki at thrombin was found to be 0.28 µM; on factor Xa (setting [4]), 2.5 µM; at plasmin, 5.2 µM; at factor XIIa it was 190 µM; on tPA, 120 µM; at glandular kallikrein it was 210 µM. This molecule gave a Ki on plasma kallikrein of 18 µM.

For `CC1CCCCN1C(=O)C(Cc1cccc(C(=N)N)c1)NS(=O)(=O)c1ccc2ccccc2c1` (racemic) [Compound 32], the figures for the inhibitory constant (Ki) on thrombin and on factor Xa (setting [4]) were 0.13 µM and 74 µM, respectively.

In the case of `CN1CCN(C(=O)C(Cc2cccc(C(=N)N)c2)NS(=O)(=O)c2ccc3ccccc3c2)CC1` (racemic) [Compound 35], the Ki on factor Xa is 30 µM; at plasmin, 31 µM; on factor XIIa it was above 1000 µM; at tPA it was 430 µM; at glandular kallikrein, above 1000 µM; at plasma kallikrein, 85 µM.

Regarding `N=C(N)c1cccc(CC(NS(=O)(=O)c2ccc3ccccc3c2)C(=O)N2CCC(C(=O)O)CC2)c1` (racemic) [Compound 85], the LD50 at 168 h in the series “in vivo” (iv) is 43 mg/kg. This molecule also gave an LD50 at 168 h in “in vivo” (po) above 3000 mg/kg. The molecule further yielded a Concentration in plasma in series [1] (oral 100 mg/kg, 240 min) of 0 ng/mL. In addition, in series [1] (plasma, po, 100 mg/kg), the concentration at 0.25 h was found to be 870 ng/mL, the concentration at 0.5 h turned out to be 541 ng/mL, the concentration at 0.75 h is 345 ng/mL and the concentration at 1 h came to 120 ng/mL. In [1] (plasma, po, 100 mg/kg), this molecule showed a concentration at 2 h of 103 ng/mL and a concentration at 3 h of 104 ng/mL. In series [2] (rat, plasma, iv, 1 mg/kg), this molecule returned a concentration at 2 min of 2350 ng/mL, a concentration at 5 min of 1240 ng/mL, a concentration at 10 min of 526 ng/mL and a concentration at 0.25 h of 334 ng/mL. In series [2] (rat, plasma, iv, 1 mg/kg), this molecule returned a concentration at 0.5 h of 240 ng/mL, a concentration at 0.75 h of 176 ng/mL, a concentration at 1 h of 99 ng/mL and a concentration at 1.5 h of 52 ng/mL. Further, in series [2] (rat, plasma, iv, 1 mg/kg), the concentration at 2 h is 28 ng/mL and the concentration at 4 h was 14 ng/mL. For the same molecule, in series [3] (plasma, sc, 5 mg/kg), the concentration at 0.25 h was 1330 ng/mL, the concentration at 0.5 h worked out at 1030 ng/mL, the concentration at 0.75 h turned out to be 860 ng/mL and the concentration at 1 h came out at 834 ng/mL. In [3] (plasma, sc, 5 mg/kg), the concentration at 1.5 h was determined as 913 ng/mL, the concentration at 2 h was determined as 977 ng/mL, the concentration at 3 h worked out at 815 ng/mL and the concentration at 4 h amounted to 676 ng/mL. Besides, the concentration at 5 h in [3] (plasma, sc, 5 mg/kg) stood at 550 ng/mL.

Turning to `N=C(N)c1cccc(CC(NS(=O)(=O)c2ccc3ccccc3c2)C(=O)N2CCCCC2C(=O)NCC(=O)O)c1` (racemic) [Compound 116, N-α-(2-Naphthylsulfonyl)-3-amidino-(D,L)-phenylalanyl-(D,L)-pipecolyl-glycine hydrochloride], the Ki at thrombin came to 1.3 µM; on factor Xa (setting [4]) it was 110 µM.

As to `COC(=O)CNC(=O)C1CCCCN1C(=O)C(Cc1cccc(C(=N)N)c1)NS(=O)(=O)c1ccc2ccccc2c1` (racemic) [Compound 117, N-α-(2-Naphthylsulfonyl-3-amidino-(D,L)-phenylalanyl-(D,L)-pipecolyl-glycine-methyl ester hydrochloride], the Ki is 0.88 µM at thrombin and 38 µM at factor Xa (setting [4]).

Regarding `N=C(N)c1cccc(CC(NS(=O)(=O)c2ccc3ccccc3c2)C(=O)N2CC3CCCCC3CC2C(=O)O)c1` (racemic) [Compound 151, N-α-(2-Naphthylsulfonyl)-3-amidino-(D,L)-phenylalanyl-decahydroisoquinoline-3-carboxylic acid hydrochloride], the values for the Ki at thrombin and at factor Xa (setting [4]) were 0.12 µM and 54 µM, respectively.

`N=C(N)c1cccc(CC(NC(=O)CNS(=O)(=O)c2ccc3ccccc3c2)C(=O)N2CCCCC2C(=O)O)c1` (racemic) [Compound 165]: the Ki on thrombin was found to be 61 µM; at factor Xa (setting [4]), 48 µM.

With `N=C(N)c1cccc(CC(NC(=O)CNS(=O)(=O)c2ccc3ccccc3c2)C(=O)N2CCC(C(=O)O)CC2)c1` (racemic) [Compound 166], the results for the inhibitory constant (Ki) at thrombin and on factor Xa (setting [4]) were 46 µM and 97 µM, respectively.

Turning to `N=C(N)c1cccc(CC(NS(=O)(=O)c2cccc3cccnc23)C(=O)N2CCCCC2C(=O)O)c1` (racemic) [Compound 180], the figures for the Ki at thrombin and on factor Xa (setting [4]) were 16 µM and 380 µM, respectively.

On to `N=C(N)c1cccc(CC(NS(=O)(=O)c2cccc3cccnc23)C(=O)N2CCC(C(=O)O)CC2)c1` (racemic) [Compound 181], for which the Ki turned out to be 127 µM on thrombin and 260 µM at factor Xa (setting [4]).

Regarding `NCc1cccc(CC(NS(=O)(=O)c2ccc3ccccc3c2)C(=O)N2CCCCC2C(=O)O)c1` (racemic) [Compound 185, N-α-(2-Naphthylsulfonyl)-3-aminomethyl-(D,L)-phenylalanyl-(D,L)-pipecolic acid], the figures for the Ki at thrombin and on factor Xa (setting [4]) were 50 µM and 140 µM, respectively.

On thrombin, `NCc1cccc(CC(NS(=O)(=O)c2ccc3ccccc3c2)C(=O)N2CCC(C(=O)O)CC2)c1` (racemic) [Compound 186] gave a Ki of 0.5 µM. In addition, the inhibition constant (Ki) on factor Xa (setting [4]) was 230 µM. Also, the LD50 at 168 h in the series “in vivo” (iv) amounted to 100 mg/kg. For the same molecule, the LD50 at 168 h in “in vivo” (po) was above 3000 mg/kg. In [1] (plasma, po, 100 mg/kg), this molecule registered a concentration at 0.25 h of 996 ng/mL, a concentration at 0.5 h of 800 ng/mL, a concentration at 0.75 h of 769 ng/mL and a concentration at 1 h of 1250 ng/mL. In series [1] (plasma, po, 100 mg/kg), this molecule returned a concentration at 1.5 h of 877 ng/mL, a concentration at 2 h of 619 ng/mL, a concentration at 3 h of 357 ng/mL and a concentration at 4 h of 328 ng/mL. Also, in [1] (plasma, po, 100 mg/kg), the concentration at 5 h was 370 ng/mL and the concentration at 6 h worked out at 326 ng/mL. For the same molecule, the pharmacokinetic properties result in series [2] was “improved pharmacokinetic properties”. In series [2] (rat, plasma, iv, 1 mg/kg), this molecule showed a concentration at 2 min of 1840 ng/mL, a concentration at 5 min of 1260 ng/mL, a concentration at 10 min of 653 ng/mL and a concentration at 0.25 h of 426 ng/mL. In series [2] (rat, plasma, iv, 1 mg/kg), this molecule gave a concentration at 0.5 h of 225 ng/mL, a concentration at 0.75 h of 205 ng/mL, a concentration at 1 h of 193 ng/mL and a concentration at 1.5 h of 53 ng/mL. Moreover, the concentration at 2 h in series [2] (rat, plasma, iv, 1 mg/kg) was 228 ng/mL. Also, in series [3] (plasma, sc, 5 mg/kg), the concentration at 0.25 h was 251 ng/mL, the concentration at 0.5 h was found to be 368 ng/mL, the concentration at 0.75 h worked out at 444 ng/mL and the concentration at 1 h came to 558 ng/mL. In series [3] (plasma, sc, 5 mg/kg), the concentration at 1.5 h came to 629 ng/mL, the concentration at 2 h is 534 ng/mL, the concentration at 3 h turned out to be 533 ng/mL and the concentration at 4 h was determined as 669 ng/mL. Further, in series [3] (plasma, sc, 5 mg/kg), the concentration at 5 h is 455 ng/mL and the concentration at 6 h turned out to be 340 ng/mL.

Regarding `CC1CCN(C(=O)C(Cc2cccc(C(=N)NO)c2)NS(=O)(=O)c2ccc3ccccc3c2)CC1` (racemic) [Compound 187, N-α-(2-Naphthylsulfonyl)-3-oxamidino-(D,L)-phenylalanine-4-methylpiperidide hydroiodide], the Ki is 2.8 µM at thrombin and above 1000 µM on factor Xa (setting [4]).

Turning to `N=C(NO)c1cccc(CC(NS(=O)(=O)c2ccc3ccccc3c2)C(=O)N2CCCCC2C(=O)O)c1` (racemic) [Compound 188, N-α-(2-Naphthylsulfonyl)-3-oxamidino-(D,L)-phenylalanyl-(D,L)-pipecolic acid hydroiodide], the Ki at thrombin was found to be 330 µM; on factor Xa (setting [4]), 410 µM.

Turning to `N=C(NO)c1cccc(CC(NS(=O)(=O)c2ccc3ccccc3c2)C(=O)N2CCC(C(=O)O)CC2)c1` (racemic) [Compound 189, N-α-(2-Naphthylsulfonyl)-3-oxamidino-(D,L)-phenylalanyl-isonipecotic acid hydroiodide], the Ki at thrombin stood at 270 µM; at factor Xa (setting [4]), 670 µM.

For the molecule `Nc1cccc(CC(NS(=O)(=O)c2ccc3ccccc3c2)C(=O)N2CCCCC2C(=O)O)c1` (racemic) [Compound 204], the Ki is 130 µM at thrombin and 450 µM at factor Xa (setting [4]).

As to `Nc1cccc(CC(NS(=O)(=O)c2ccc3ccccc3c2)C(=O)N2CCC(C(=O)O)CC2)c1` (racemic) [Compound 205], the Ki on thrombin and at factor Xa (setting [4]) was 720 µM in each case.

Turning to `N=C(N)Nc1cccc(CC(NS(=O)(=O)c2ccc3ccccc3c2)C(=O)N2CCCCC2C(=O)O)c1` (racemic) [Compound 208, N-α-(2-Naphthylsulfonyl)-3-guanidino-(D,L)-phenylalanine-(D,L)-pipecolic acid hydrochloride], the Ki worked out at 29 µM on thrombin and 82 µM at factor Xa (setting [4]). In addition, the LD50 at 168 h in the series “in vivo” (iv) is above 50 mg/kg; in “in vivo” (po), above 1000 mg/kg.

For the molecule `N=C(N)c1cccc(C[C@H](NS(=O)(=O)c2ccc3ccccc3c2)C(=O)N2CCC[C@H]2C(=O)O)c1` [Nα-2-naphthylsulfonyl-3-amidinophenylalanyl proline], at thrombin (in words), the inhibition of thrombin result was “surprisingly inhibits thrombin”. In addition, the “inhibition of factor Xa” value against factor Xa (in words) was “does not selectively inhibit factor Xa”. The “detection / concentration in plasma or absorption after oral administration” value in [1] (oral) was “absorbed by the intestine”. Further, the pharmacokinetic properties result in series [2] is listed as “excellent pharmacokinetic properties”. Also, the “blood level after subcutaneous administration” value in series [3] (s.c.) was “a relatively high blood level is reached which is maintained in an anticoagulantly effective concentration for a prolonged period of time”.

These data come from patent publication US5518735A, “Meta-substituted phenylalanine derivatives” (priority 1990, dated 1996).
